According to PMC6773865, “Functional recruitment of dynamin requires multimeric interactions for efficient endocytosis” (Nature Communications, 2019):

System: clathrin mediated endocytosis (TfR-SEP) in NIH 3T3 cells
Assay: ppH assay combined with patch-clamp dialysis
Assay type: cell-based
Details: for inhibition of endocytosis on dialysis: peptide dialysed through patch pipette, 3T3 cells, ppH assay; for event frequency ratio f = FWC/FCA: event frequency 8–10 min whole cell over 3–5 min cell attached, same cell, average ± SEM, SEM
Description: To do so, we monitored cellular endocytic activity using the ppH assay with new developments for fully automated analysis on a large number of cells (See “Methods” and Supplementary Fig. 4). We combined this assay, which monitors in real time the endocytic activity of cells, with the patch-clamp technique in order to dialyse the relevant peptide at a known concentration inside the cellular cytoplasm to inhibit endocytosis acutely. Each recording consisted of 5 min in cell-attached mode (CA) with no dialysis followed by 10 min in whole cell mode (WC) during which the inhibitors were dialysed (Fig. 5a, b). Each recording therefore had its own internal control condition, i.e., the cell-attached mode, from which we obtained the frequency ratio f = FWC/FCA, where F is the event frequency recorded during the indicated mode. Of note, the electrical parameters of patch clamp recordings were similar in all conditions (Supplementary Fig. 5). To assess the innocuousness of this assay, we monitored the endocytic activity of unperturbed cells vs. cells dialysed with a control solution (see methods for composition). Patching the cells minimally affected their endocytic activity over a 10 min period (event frequency f = 67.3 ± 4.3%, n = 60, vs. 90.7 ± 14.9% in no patching recordings, n = 8, p = 0.58).
NIH 3T3 cells (ECACC 93061524) were cultured in DMEM supplemented with 1% sodium pyruvate, 1% glutamax and 10% fetal calf serum (Invitrogen). Cells were incubated at 37 °C in 5% CO2 until use and subcultured every 2 to 4 days for maintenance up to passage 20. Cells were transfected with 1.5 μg of TfR-SEP plasmid 24 h prior to imaging and patch clamp. Care was taken to find the right balance between sufficient fluorescent signal to allow for proper imaging and reasonable overexpression to diminish potential saturation artefacts. Best results were obtained using Fugene 6 (Promega) as the transfection reagent but Lipofectamine 2000 (Invitrogen) has also been used in this study due to a temporary arrest of Fugene 6 production by the provider. All transfections were performed according to the manufacturers’ recommendations. Four to eight hours after transfection, cells were seeded at a density of ~70,000 cells ml^−1 on 18 mm glass coverslips coated with poly-L-lysine (3 min application of 0.1 mM polylysine (Sigma P2636) in borate buffer, pH 8.0 followed by a quick rinse in PBS) and used the next day.
Fast solution exchange was controlled by electro-valves (Lee company) connected to a theta glass pipette (TG150, Harvard Apparatus) pulled to ∼100-μm tip size using a vertical puller (Narishige, World Precision Instruments) placed above the recorded cell. Cells were alternatively perfused with HEPES or MES buffered saline solutions (HBS/MBS) containing (in mM): 135 NaCl, 5 KCl, 0.4 MgCl2, 1.8 CaCl2, 1 D-glucose and 20 HEPES or MES. The pH was adjusted to 7.4 or 5.5 using NaOH and osmolarity to 310–315 mOsm L^−1 with NaCl.
Cells were patched with pipettes made of borosilicate glass (GC150F, Harvard Apparatus) and pulled with a vertical Narishige puller (World Precision Instruments). The solution contained (in mM): 130–140 KCH3SO3, 1 EGTA, 0.1 CaCl2, 10–20 HEPES, 4 ATP (sodium or magnesium salt), 0.4 Na-GTP (or GTPγS when indicated), 5 phosphocreatine and 3 sodium ascorbate. pH was adjusted to 7.2 using KOH and osmolarity to ~300 mOsm L^−1. Sodium ascorbate was omitted in earlier recordings but was added for better stability. Chloride ions either came from 2 mM KCl, 10 mM NaCl or 4 mM MgCl2 (when Na-ATP was used) in various trials. All salts were purchased from Sigma-Aldrich. Cells were voltage-clamped at −60 mV with an EPC10 amplifier (HEKA) with series resistance and cell capacitance estimation every 4 s in the whole cell mode. The digital triggers of the amplifier were used to drive the electrovalves for pH changes. […]

| Compound | inhibition of endocytosis on dialysis | event frequency ratio f = FWC/FCA (100 µM peptide in patch pipette, n = 13 (D15)) [%] | event frequency ratio f = FWC/FCA (1 mM peptide in patch pipette, n = 22 (D15), 15 (D44), 6 (dD15-C)) [%] |
| --- | --- | --- | --- |
| CC(=O)N[C@@H](Cc1ccc(O)cc1)C(=O)N[C@@H](CCCCn1cc(CCC(=O)NCCCOCCOCCOCCCNC(=O)CCC(=O)NCCCOCCOCCOCCCNC(=O)CCC(=O)NCCCOCCOCCOCCCNC(=O)CCC(=O)N2CCC[C@H]2C(=O)N2CCC[C@H]2C(=O)N2CCC[C@H]2C(=O)N[C@@H](CCC(N)=O)C(=O)N[C@H](C(=O)N2CCC[C@H]2C(=O)N[C@@H](CO)C(=O)N[C@@H](CCCNC(=N)N)C(=O)N2CCC[C@H]2C(=O)N[C@@H](CC(N)=O)C(=O)N[C@@H](CCCNC(=N)N)C(=O)N[C@@H](C)C(=O)N2CCC[C@H]2C(=O)N2CCC[C@H]2C(=O)NCC(N)=O)C(C)C)nn1)C(=O)NCCCOCCOCCOCCCNC(=O)CCC(=O)NCCCOCCOCCOCCCNC(=O)CCC(=O)NCCCOCCOCCOCCCNC(=O)CCC(=O)N1CCC[C@H]1C(=O)N1CCC[C@H]1C(=O)N1CCC[C@H]1C(=O)N[C@@H](CCC(N)=O)C(=O)N[C@H](C(=O)N1CCC[C@H]1C(=O)N[C@@H](CO)C(=O)N[C@@H](CCCNC(=N)N)C(=O)N1CCC[C@H]1C(=O)N[C@@H](CC(N)=O)C(=O)N[C@@H](CCCNC(=N)N)C(=O)N[C@@H](C)C(=O)N1CCC[C@H]1C(=O)N1CCC[C@H]1C(=O)NCC(N)=O)C(C)C [dD15-N] | clearly increased efficiency over D15 | – | – |
| Ac-YPPPQVPSRPNRAPPG-NH2 [D15, reference compound] | only partial | 59.0 ± 5.0 | 38.2 ± 3.9 |
